Columns and labels:
[1] = system: PLX4720-resistant MITF^acq^_^gain cells; test: long-term viability assay, crystal violet staining; format: cell-based, human; conditions: crystal violet after 6 days
Procedure: FIG. 5: Loss of MITF confers cross-resistance and increases invasiveness of resistant cells. Two PLX4270-resistant cells lines (Me1888 and SkMe128) and their treatment-naïve counterparts were treated with either ERKi, MEKi, the BRAFinhibitor Dabrafenib or a combination of the latter and stained with crystal violet after 6 days of treatment.
(§1) Cell line sources: Melanoma cell lines and HEK293T were cultured in DMEM/9% FBS (Sigma), 2 mM glutamine, 100 U/mL penicillin and 0.1 mg/mL streptomycin (all Gibco) under standard conditions. HEK293T cells were used for virus production for MITF-overexpression and shRNAs. Briefly HEK293T cells were transfected with the plasmid of interest and the helper plasmids (pMDLglpRRE, pHCMV-G, and pRSVrev). Viral supernatant was either fresh frozen or subsequently used for infection. Infected melanoma cells were positively selected with puromycin (Sigma). For dose response curve and colony formation assay cells were plated in a line-specific manner. Equal concentration of inhibitors was added one day after set up. For short-term viability assay (dose response curve) cells were plated in a 96-well format and drugs diluted with the HP D300 Digital Dispenser (Tecan). […] Two hours later luminescence was measured by the infinite M200 microplate reader (Tecan, Giessen, Germany). […]

[2] = system: MITF^endo^_^hi and MITF^endo^_^lo cell lines; test: dose response curve (short-term viability assay); format: cell-based, human; conditions: four MITF^endo^_^lo versus four MITF^endo^_^hi cell lines
Procedure: Cell line sources: Melanoma cell lines and HEK293T were cultured in DMEM/9% FBS (Sigma), 2 mM glutamine, 100 U/mL penicillin and 0.1 mg/mL streptomycin (all Gibco) under standard conditions. […] For dose response curve and colony formation assay cells were plated in a line-specific manner. Equal concentration of inhibitors was added one day after set up. For short-term viability assay (dose response curve) cells were plated in a 96-well format and drugs diluted with the HP D300 Digital Dispenser (Tecan). After three to five days incubation old medium was replaced by a dilution of CellTiter Blue reagent or CellTiter-Glo Luminescent Cell Viability Assay (Promega, Madison, Wiss.) in medium. Two hours later luminescence was measured by the infinite M200 microplate reader (Tecan, Giessen, Germany).
(§2) We then determined the spectrum of drug sensitivity among the MITF^endo^_^lo and MITF^endo^_^hi cells.

[3] = system: MITF; test: MITF expression during acquisition of resistance; format: cell-based, human; conditions: short-term exposure, M229 and M238 MITF^acq^_^loss melanoma cell lines
Procedure: RNA was isolated using Trizol (Ambion), following standard protocol. Reverse transcription was performed using a kit from Invitrogen. Primers were designed using Primer Express software. QRT-PCR was performed with SYBR green master mix (Applied Biosystems) on a StepOnePlus Real-Time PCR system (Applied Biosystems, Warrington, UK). RNA levels were normalized against beta-actin or RPL13. Following primers were used: To study the dynamics of MITF downregulation as a function of the acquisition of a resistant phenotype, two independent MITF^acq^_^loss melanoma cell lines (M229 and […]; {Shi:2014fm}) were permanently exposed to 1 μM vemurafenib and monitored in time.

[4] = system: receptor tyrosine kinases (RTKs); test: phospho-RTK array; format: cell-based, human; conditions: 5 μM, two days
Procedure: Phospho-RTK assay was performed using the human Phospho-RTK Array from RD Systems (Minneapolis, USA). All steps were performed according to the manufactures protocol.
Encouraged by these findings, we compared the phosphorylation status of RTKs in one MITF^endo^_^lo and one MITF^endo^_^lo cell line.

[5] = system: ERK phosphorylation; test: immunoblot of ERK phosphorylation; format: cell-based, human; conditions: 5 μM; irrespective of MITF status
Procedure: For immunoblot analysis cells were treated on 10 cm dishes and snap-frozen after harvesting.
Cells were lysed in RIPA buffer and protein concentration measured with Bio-Rad protein assay. Immunoblots were performed according to standard protocols on 4 to 12% bis-Tris precast or 3-8% tris-acetate gels (NuPage). […] MAP kinase p44/42 thy202/Tyr204 (9106) and PDGFRbeta (31695) from Cell Signaling.

[6] = system: MITF^endo^_^lo and MITF^endo^_^hi BRAF mutant melanoma cells; test: cell proliferation assay and PARP cleavage; format: cell-based, human; conditions: 5 μM, six days; MITF^endo^_^lo versus MITF^endo^_^hi cells
Procedure: FIG. 7: BRAFV600E mutant melanoma cells were plated in low density and treated with 5 μM PLX4270 for 6 days or left untreated and stained with crystal violet (left panel).
Cell line sources: Melanoma cell lines and HEK293T were cultured in DMEM/9% FBS (Sigma), 2 mM glutamine, 100 U/mL penicillin and 0.1 mg/mL streptomycin (all Gibco) under standard conditions. […] For dose response curve and colony formation assay cells were plated in a line-specific manner. Equal concentration of inhibitors was added one day after set up. For short-term viability assay (dose response curve) cells were plated in a 96-well format and drugs diluted with the HP D300 Digital Dispenser (Tecan). After three to five days incubation old medium was replaced by a dilution of CellTiter Blue reagent or CellTiter-Glo Luminescent Cell Viability Assay (Promega, Madison, Wiss.) in medium. Two hours later luminescence was measured by the infinite M200 microplate reader (Tecan, Giessen, Germany). Long-term viability assays were performed in 6-well or 12-well format. Inhibitors solutions were replaced every two to three days and plates stained with crystal violet after six to nine days of treatment (as indicated). For immunoblot analysis cells were treated on 10 cm dishes and snap-frozen after harvesting.
as §2

[7] = system: AXL-expressing PLX4270-resistant melanoma cells; test: long-term viability assay, crystal violet staining; format: cell-based, human; conditions: 0.3 μM AXL inhibitor, nine days, in two out of three resistant cell lines
Procedure: FIG. 12: AXL-expressing PLX4270-resistant melanoma cells were exposed to 0.3 μM AXL inhibitor for nine days and the remaining cells stained with crystal violet.
as §1
Next, we determined the expression pattern of these RTKs in acquired resistance, particularly in PLX4720-sensitive cells and their resistant counterparts. […]

[8] = system: BRAF and BRAF/MEK inhibitor-resistant cells; conditions: Morris et al. 2013; cited from earlier work
[9] = system: BRAFV600E mutant melanoma cell line (04.07); test: sensitivity of screening cell line to ERK inhibitor; format: cell-based, human; conditions: not all cells are killed even at high concentration
Procedure: The insertional mutagenesis screen was performed as described previously (Lu et al. Proc Natl Acad Sci U S A. (2009) 22;106(38):16339-44). Briefly, an intermediate sensitive melanoma cell line of low passage (Me104.07) was infected separately with the three different VBIM constructs (SD1-3). Two days after infection cells were exposed to 1 μM […] for three weeks till single colonies had formed. These were picked and separately cultured. For identification of insertions Splinkerette-PCR was used according to the published protocol and Sanger sequencing applied on amplified products.
To identify proteins conferring resistance to MAPK pathway inhibition by the recently available ERK inhibitor 5CH772984, we performed a lentiviral insertional mutagenesis screen using the VBIM system. Carrying a GFP-sequence and a strong CMV promoter, the virus integrates in the genome, resulting in an activation of downstream sequences that leads to overexpression of a FLAG-tagged protein. Due to […] excision the insertion can be excised by addition of 4-Hydroxytamoxifen (4-OHT). […] We infected this cell line with the three versions of the insertional mutagenesis vector (SD1-3). After three weeks of culturing in the presence of 1 μM SCH772984, we were able to pick drug-resistant clones and individually expanded them. […]

SMILES: CC(C)(C)c1nc(-c2cccc(NS(=O)(=O)c3c(F)cccc3F)c2F)c(-c2ccnc(N)n2)s1 [Dabrafenib]
- sensitivity in long-term experiment [1]: resistant

SMILES: CC(=O)Nc1cccc(-n2c(=O)n(C3CC3)c(=O)c3c(Nc4ccc(I)cc4F)n(C)c(=O)c(C)c32)c1 [MEKi]
- increase in resistance, as measured from the IC50 values [2]: up to 1000 fold

SMILES: CCCS(=O)(=O)Nc1ccc(F)c(C(=O)c2c[nH]c3ncc(Cl)cc23)c1F [PLX4720]
- MITF expression [3]: sharply dropped
- activation of RTKs ([4]; MITF^endo^_^hi cells): only a minor activation
- activation of RTKs ([4]; MITF^endo^_^lo cells): further increased
- ERK phosphorylation [5]: diminished
- survival of cells upon exposure [6]: clear survival benefit

SMILES: Nc1nc(Nc2ccc3c(c2)CCC(N2CCCC2)CC3)nn1-c1cc2c(nn1)-c1ccccc1CCC2 (stereo not shown) [R428]
- proliferation/viability upon drug treatment [7]: strong decrease in proliferation/viability

SMILES: O=C(Nc1ccc2[nH]nc(-c3ccncc3)c2c1)[C@@H]1CCN(CC(=O)N2CCN(c3ccc(-c4ncccn4)cc3)CC2)C1 [SCH772984]
- proliferation [8]: effectively block proliferation
- sensitivity to the inhibitor [9]: intermediately sensitive

Reference: patent publication US20170027940A1, “METHOD FOR TREATING CANCER” (STICHTING HET NEDERLANDS KANKER INSTITUUT, priority 2014, published 2017)
